20 compounds from patent publication US10239849B2 (Merck Sharp & Dohme Corp., priority 2015, dated 2019) can be followed below.

Assay [1] has as its target T1, glutathione-S-transferase (GST) tagged LXRalpha LBD (ligand binding domain) (Homo sapiens, UniProt Q13133).
T1 construct: purchased Invitrogen pv4655
T1 sequence (Q13133 209-447 limits assumed): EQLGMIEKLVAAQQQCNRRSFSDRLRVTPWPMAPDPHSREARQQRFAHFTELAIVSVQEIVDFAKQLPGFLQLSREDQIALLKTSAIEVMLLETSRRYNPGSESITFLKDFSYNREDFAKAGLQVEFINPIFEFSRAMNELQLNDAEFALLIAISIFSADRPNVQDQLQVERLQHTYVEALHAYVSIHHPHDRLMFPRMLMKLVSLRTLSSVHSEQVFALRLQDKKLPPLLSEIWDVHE
In words: LanthaScreen TR-FRET Liver X Receptor Coactivator Assay, LXR alpha-LBD. Type of assay: biochemical. The conditions noted are these: for Emax: efficacy in relation to reference dual agonist T1317, read-out: LXR alpha activity at max dose (%) (Emax); for EC50 / LXR alpha IP (nM): potency (Inflection Point) of co-activator recruitment, TR-FRET; for EC50: read-out: LXR alpha IP. The procedure, abridged:
(§1)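 Measures ligand-driven coactivator peptide binding by time-resolved energy transfer between terbium-tagged anti-GST antibody and fluorescein-labelled peptide. Incubation is at room temperature.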
In general terms: Time-resolved FRET reads energy transfer from a long-lived donor to a nearby acceptor.

The target of assay [2] is T2, glutathione-S-transferase (GST) tagged LXRbeta LBD (ligand binding domain) (Homo sapiens, UniProt P55055).
T2 construct: purchased Invitrogen pv4658.pps
T2 sequence (P55055 222-460 limits assumed): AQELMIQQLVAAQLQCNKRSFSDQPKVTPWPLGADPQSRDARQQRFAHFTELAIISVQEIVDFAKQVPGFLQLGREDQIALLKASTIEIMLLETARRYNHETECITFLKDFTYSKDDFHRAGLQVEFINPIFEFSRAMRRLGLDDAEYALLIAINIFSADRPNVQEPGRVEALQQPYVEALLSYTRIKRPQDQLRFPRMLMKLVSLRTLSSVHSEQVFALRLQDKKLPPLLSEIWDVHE
In words: LanthaScreen TR-FRET Liver X Receptor Coactivator Assay, LXR beta-LBD. It is filed as biochemical. The conditions noted are these: for Emax: efficacy in relation to reference dual agonist T1317, read-out: LXR beta activity at max dose (%) (Emax); for EC50: potency (Inflection Point) of co-activator recruitment, TR-FRET, read-out: LXR beta IP. The procedure, abridged:
as §1

For orientation: Emax means the greatest response seen or fitted, relative to the assay's reference.

On to `CC(C)C(O)(C(=O)N1CCN(c2ccc(-c3ccc(C(=O)N(C)C)c(Cl)c3)cc2)CC1)C(F)(F)F` (centres unmarked) [Example 4-18, 3-chloro-4′-{4-[2-hydroxy-3-methyl-2-(trifluoromethyl)butanoyl]piperazin-1-yl}-N,N-dimethylbiphenyl-4-carboxamide], for which, in assay [1], the Emax turned out to be 20% and the EC50 is 1290 nM. In addition, in assay [2], the maximal effect (Emax) came out at 65% and the EC50 was 259 nM.

On to `CN(C)C(=O)c1ccc(-c2ccc(N3CCN(S(=O)(=O)c4c(Cl)cccc4Cl)CC3)cc2)cc1Cl` [Example 4-13, 3-chloro-4′-{4-[(2,6-dichlorophenyl)sulfonyl]piperazin-1-yl}-N,N-dimethylbiphenyl-4-carboxamide], for which, in assay [1], the maximum response (Emax) stood at 29% and the EC50 was determined as 5730 nM. Further, in assay [2], the maximal response (Emax) amounted to 97% and the EC50 was 380 nM.

In the case of `CNC(=O)c1ccc(-c2cnc(N3CCN(C(=O)OC(C)(C)C)CC3)c(C#N)c2)cc1Cl` [Example 5-3, tert-butyl 4-{5-[3-chloro-4-(methylcarbamoyl)phenyl]-3-cyanopyridin-2-yl}piperazine-1-carboxylate], in assay [1], the maximal effect (Emax) is 76% and the EC50 worked out at 33700 nM. Moreover, in assay [2], the Emax is 82% and the EC50 stood at 176 nM.

`CN(C)C(=O)c1ccc(-c2cnc(N3CCN(C(=O)C(O)(CCc4ccccc4)C(F)(F)F)CC3)c(C#N)c2)cc1Cl` (centres unmarked) [Example 2-37, 2-chloro-4-(5-cyano-6-{4-[2-hydroxy-4-phenyl-2-(trifluoromethyl)butanoyl]piperazin-1-yl}pyridin-3-yl)-N,N-dimethylbenzamide]: in assay [1], the Emax is 55% and the EC50 amounted to 97600 nM. Also, in assay [2], the maximal response (Emax) was 58% and the EC50 is 735 nM.

`CN(C)C(=O)c1ccc(-c2cnc(N3CCN(C(=O)OCC4(C)CC4)CC3)c(C#N)c2)cc1Cl` [Example 3-12, (1-methylcyclopropyl)methyl 4-{5-[3-chloro-4-(dimethylcarbamoyl)phenyl]-3-cyanopyridin-2-yl}piperazine-1-carboxylate]: the Emax in assay [1] came to 30%; in assay [2] it was 55%. The EC50 in assay [1] was determined as 4330 nM; in assay [2], 39 nM.

Turning to `CN(C)C(=O)c1ccc(-c2cnc(N3CC4CC3CN4C(=O)OC(C)(C)C)c(C#N)c2)cc1Cl` (centres unmarked) [Example 8-5, tert-butyl 5-{5-[3-chloro-4-(dimethylcarbamoyl)phenyl]-3-cyanopyridin-2-yl}-2,5-diazabicyclo[2.2.1]heptane-2-carboxylate], in assay [1], the maximal effect (Emax) came to 37% and the EC50 worked out at 16800 nM. Also, in assay [2], the Emax turned out to be 53% and the EC50 came to 252 nM.

Regarding `CN(C)C(=O)c1c(Cl)cc(-c2cnc(N3CCN(C(=O)[C@](O)(c4ccccc4)C(F)(F)F)CC3)c(C#N)c2)cc1Cl` [Example 7-1, 2,6-dichloro-4-(5-cyano-6-{4-[(2R)-3,3,3-trifluoro-2-hydroxy-2-phenylpropanoyl]piperazin-1-yl}pyridin-3-yl)-N,N-dimethylbenzamide], in assay [1], the Emax was found to be 53% and the EC50 was determined as 186 nM. In addition, in assay [2], the maximum response (Emax) was found to be 73% and the EC50 was 3 nM.

Consider `CN(C)C(=O)c1ccc(-c2cnc(N3CCN(C(=O)C4(c5ccc(Cl)cc5Cl)CC4)CC3)c(C#N)c2)cc1Cl` [Example 2-34, 2-chloro-4-[5-cyano-6-(4-{[1-(2,4-dichlorophenyl)cyclopropyl]carbonyl}piperazin-1-yl)pyridin-3-yl]-N,N-dimethylbenzamide], for which, in assay [1], the Emax was found to be 49% and the EC50 is 12700 nM. In addition, in assay [2], the maximal response (Emax) amounted to 88% and the EC50 stood at 25 nM.

For the compound `CN(C)C(=O)c1ccc(-c2ccc(N3CCN(C(=O)c4c(F)cccc4C(F)(F)F)CC3)cc2)cc1Cl` [Example 4-12, 3-chloro-4′-(4-{[2-fluoro-6-(trifluoromethyl)phenyl]carbonyl}piperazin-1-yl)-N,N-dimethylbiphenyl-4-carboxamide], in assay [1], the maximal response (Emax) was 20% and the “LXR alpha IP (nM)” value is “No IP”. In assay [2], the Emax is 83% and the EC50 came to 881 nM.

With `CC(C)(C)OC(=O)N1CCN(c2ncc(-c3ccc(C(=O)N4CCCC4)c(Cl)c3)cc2C#N)CC1` [Example 5-9, tert-butyl 4-{5-[3-chloro-4-(pyrrolidin-1-ylcarbonyl)phenyl]-3-cyanopyridin-2-yl}piperazine-1-carboxylate], in assay [1], the Emax turned out to be 48% and the EC50 was determined as 14300 nM. For the same compound, in assay [2], the maximum response (Emax) worked out at 71% and the EC50 came out at 274 nM.

On to `CN(CCc1ccncc1)C(=O)c1ccc(-c2cnc(N3CCN(C(=O)OC(C)(C)C)CC3)c(C#N)c2)cc1Cl` [Example 5-27, tert-butyl 4-(5-{3-chloro-4-[methyl(2-pyridin-4-ylethyl)carbamoyl]phenyl}-3-cyanopyridin-2-yl)piperazine-1-carboxylate], for which, in assay [1], the Emax came out at 17% and the “LXR alpha IP (nM)” value is given as “No IP”. Also, in assay [2], the Emax was 76% and the EC50 was 705 nM.

Consider `CN(C)C(=O)c1ccc(-c2cnc(N3CCN(S(=O)(=O)c4c(Cl)cccc4Cl)CC3)c(C#N)c2)cc1Cl` [Example 1-1, 2-chloro-4-(5-cyano-6-{4-[(2,6-dichlorophenyl)sulfonyl]piperazin-1-yl}pyridin-3-yl)-N,N-dimethylbenzamide], for which, in assay [1], the Emax came out at 55% and the EC50 was found to be 690 nM. In addition, in assay [2], the Emax stood at 124% and the EC50 was found to be 7 nM.

Turning to `CC(C)(C)OC(=O)N1CCN(c2ncc(-c3ccc(C(=O)N(CCCO)C4CC4)c(Cl)c3)cc2C#N)CC1` [Example 5-20, tert-butyl 4-(5-{3-chloro-4-[cyclopropyl(3-hydroxypropyl)carbamoyl]phenyl}-3-cyanopyridin-2-yl)piperazine-1-carboxylate], in assay [1], the maximal response (Emax) is 31% and the EC50 worked out at 4070 nM. In addition, in assay [2], the Emax was 55% and the EC50 worked out at 565 nM.

As for `CN(C)C(=O)c1ccc(-c2cnc(N3CCN(C(=O)[C@@](C)(O)C(F)(F)F)CC3)c(C#N)c2)cc1Cl` [Example 2-15, 2-chloro-4-(5-cyano-6-{4-[(2R)-3,3,3-trifluoro-2-hydroxy-2-methylpropanoyl]piperazin-1-yl}pyridin-3-yl)-N,N-dimethylbenzamide], in assay [1], the maximal effect (Emax) was 58% and the EC50 worked out at 13100 nM. Also, in assay [2], the Emax came out at 101% and the EC50 was found to be 171 nM.

On to `CNC(=O)c1ccc(-c2cnc(N3CCN(C(=O)C(C)(C)C)CC3)c(C#N)c2)cc1Cl` [Example 6-2, 2-chloro-4-{5-cyano-6-[4-(2,2-dimethylpropanoyl)piperazin-1-yl]pyridin-3-yl}-N-methylbenzamide], for which the maximal response (Emax) in assay [1] turned out to be 34%; in assay [2], 98%. The EC50 in assay [1] was 11300 nM; in assay [2], 329 nM.

For the compound `CN(Cc1cnn(C)c1)C(=O)c1ccc(-c2cnc(N3CCN(C(=O)OC(C)(C)C)CC3)c(C#N)c2)cc1Cl` [Example 5-22, tert-butyl 4-[5-(3-chloro-4-{methyl[(1-methyl-1H-pyrazol-4-yl)methyl]carbamoyl}phenyl)-3-cyanopyridin-2-yl]piperazine-1-carboxylate], the Emax came to 34% in assay [1] and 65% in assay [2]. Further, the EC50 is 9700 nM in assay [1] and 382 nM in assay [2].

For `CN(C)C(=O)c1ccc(-c2ccc(N3CC4CCC(C3)N4C(=O)OC(C)(C)C)cc2)cc1Cl` [Example 8-3, tert-butyl 3-[3′-chloro-4′-(dimethylcarbamoyl)biphenyl-4-yl]-3,8-diazabicyclo[3.2.1]octane-8-carboxylate], in assay [1], the Emax was found to be 64% and the EC50 came to 11700 nM. Besides, in assay [2], the Emax stood at 87% and the EC50 stood at 189 nM.

Consider `CN(C)C(=O)c1ccc(-c2ccc(N3CCN(C(=O)c4ccccc4C#N)CC3)cc2)cc1Cl` [Example 4-2, 3-chloro-4′-{4-[(2-cyanophenyl)carbonyl]piperazin-1-yl}-N,N-dimethylbiphenyl-4-carboxamide], for which, in assay [1], the maximum response (Emax) came to 24% and the “LXR alpha IP (nM)” value is listed as “No IP”. For the same compound, in assay [2], the Emax stood at 93% and the EC50 turned out to be 2320 nM.

`CN(C)C(=O)c1ccc(-c2cnc(N3CCN(S(=O)(=O)c4cccnc4)CC3)c(C#N)c2)cc1Cl` [Example 1-5, 2-chloro-4-{5-cyano-6-[4-(pyridin-3-ylsulfonyl)piperazin-1-yl]pyridin-3-yl}-N,N-dimethylbenzamide]: the results for the maximal effect (Emax) in assay [1] and in assay [2] were 31% and 85%, respectively. Moreover, the EC50 in assay [1] was 60500 nM; in assay [2], 939 nM.

`CN(C)C(=O)c1ccc(-c2cnc(N3CCN(S(=O)(=O)Cc4ccccc4F)CC3)c(C#N)c2)cc1Cl` [Example 1-10, 2-chloro-4-(5-cyano-6-{4-[(2-fluorobenzyl)sulfonyl]piperazin-1-yl}pyridin-3-yl)-N,N-dimethylbenzamide]: in assay [1], the maximal effect (Emax) worked out at 18% and the EC50 stood at 733 nM. In assay [2], the Emax came to 65% and the EC50 came to 162 nM.
